Test results reported in ChEMBL document CHEMBL5543126, “Combinatorial Ubiquitination REal-time PROteolysis (CURE-PROs): A Modular Platform for Generating Reversible, Self-Assembling Bifunctional Targeted Degraders” (J Med Chem, 2024).
Activity calls are given as the source filed them. The rule behind the calls is not given here.

Columns and labels:
[1] = Metabolic stability in human liver microsome at 1 uM measured upto 60 mins in absence of NADPH/UDPGA by LC-MS/MS analysis; format: ADME; conditions: liver microsomes, read-out: Stability
[2] = molecular target: T1, von Hippel-Lindau disease tumor suppressor/Bromodomain-containing protein 4 (Homo sapiens, UniProt O60885+P40337); assay: (§1) PROTAC activity at BRD4/VHL in human MCF7 cells assessed as reduction in BRD4 level incubated for 24 hrs in presence of BRD4 based ligand ((4S)-6-(4-chlorophenyl)-4-(2-(ethylamino)-2-oxoethyl)-1-methyl4Hbenzo[f][1,2,4]triazolo [4,3-a][1,4]diazepin-8-yl)boronic acid by Western blot based Combinatorial Ubiquitination Real-time PROteolysis analysis; format: cell-based
[3] = system: MV4-11; assay: Antitumor activity against human MV4-11 cells xenografted in nude mouse assessed as reduction in BRD4 level in tumor at 10 mg/kg, ip administered for 4 hrs and measured at 9 to 12 hrs in presence of VHL based ligand (2S,4R)-1-((S)-2-(2,3-dihydroxybenzamido)-3,3-dimethylbutanoyl)-4-hydroxy-N-(4-(4-methylthiazol-5-yl)benzyl)pyrrolidine-2-carboxamide; format: functional, organism-based; conditions: time 9-12 hrs
[4] = molecular target: T1, von Hippel-Lindau disease tumor suppressor/Bromodomain-containing protein 4; assay: (§2) PROTAC activity at BRD4/VHL in human MCF7 cells assessed as induction of BRD4 degradation by measuring residual activity at 300 nM incubated for 24 hrs in presence of 300 nM VHL based ligand (2S,4R)-1-((S)-2-(2,3-dihydroxybenzamido)-3,3-dimethylbutanoyl)-4-hydroxy-N-(4-(4-methylthiazol-5-yl)benzyl)pyrrolidine-2-carboxamide by Western blot based Combinatorial Ubiquitination Real-time PROteolysis analysis; format: cell-based
[5] = Metabolic stability in C57BL/6 mouse liver microsome assessed as half life at 1 uM measured upto 60 mins by LC-MS/MS analysis; format: ADME, microsomes
[6] = molecular target: T1, von Hippel-Lindau disease tumor suppressor/Bromodomain-containing protein 4; assay: as §2, with “VHL/BRD4” for “BRD4/VHL”, “HEK293” for “human MCF7”, “degradation rate” for “residual activity”, “10 uM measured every 15 mins” for “300 nM incubated”, “of” for “of 300 nM”, “HiBiT” for “Western blot”; format: cell-based
[7] = Metabolic stability in C57BL/6 mouse liver microsome at 1 uM measured upto 60 mins in presence of NADPH/UDPGA by LC-MS/MS analysis; format: ADME, microsomes
[8] = molecular target: T1, von Hippel-Lindau disease tumor suppressor/Bromodomain-containing protein 4; assay: PROTAC activity at BRD4/VHL in human MCF7 cells assessed as induction of BRD4 degradation by measuring residual activity at 100 nM incubated for 24 hrs by Western blot analysis; format: cell-based
[9] = molecular target: T1, von Hippel-Lindau disease tumor suppressor/Bromodomain-containing protein 4; assay: PROTAC activity at BRD4/VHL in human MCF7 cells assessed as induction of BRD4 degradation by measuring residual activity at 300 nM incubated for 24 hrs by Western blot analysis; format: cell-based
[10] = molecular target: T1, von Hippel-Lindau disease tumor suppressor/Bromodomain-containing protein 4; assay: as §2, with “at 1 uM” for “at 300 nM”, “of 10 uM” for “of 300 nM”; format: cell-based
[11] = Cmax in C57BL/6 mouse at 10 mg/kg, ip measured upto 24 hrs by LC-MS/MS analysis; format: ADME, organism-based; conditions: in vivo
[12] = molecular target: T1, von Hippel-Lindau disease tumor suppressor/Bromodomain-containing protein 4; assay: PROTAC activity at BRD4/VHL in human MCF7 cells assessed as induction of BRD4 degradation by measuring residual activity at 1 uM incubated for 24 hrs by Western blot analysis; format: cell-based
[13] = Tmax in C57BL/6 mouse at 10 mg/kg, ip measured upto 24 hrs by LC-MS/MS analysis; format: ADME, organism-based; conditions: in vivo
[14] = Metabolic stability in human liver microsome assessed as half life at 1 uM measured upto 60 mins by LC-MS/MS analysis; format: ADME; conditions: liver microsomes
[15] = molecular target: T1, von Hippel-Lindau disease tumor suppressor/Bromodomain-containing protein 4; assay: as §2, with “of 3 uM” for “of 300 nM”; format: cell-based
[16] = molecular target: T1, von Hippel-Lindau disease tumor suppressor/Bromodomain-containing protein 4; assay: PROTAC activity at BRD4/VHL in human MCF7 cells assessed as induction of BRD4 degradation by measuring residual activity at 3 uM incubated for 24 hrs by Western blot analysis; format: cell-based
[17] = AUClast in C57BL/6 mouse at 10 mg/kg, ip measured upto 24 hrs by LC-MS/MS analysis; format: ADME, organism-based; conditions: in vivo
[18] = Metabolic stability in human liver microsome at 1 uM measured upto 60 mins in presence of NADPH/UDPGA by LC-MS/MS analysis; format: ADME; conditions: liver microsomes, read-out: Stability
[19] = Metabolic stability in C57BL/6 mouse liver microsome at 1 uM measured upto 60 mins in absence of NADPH/UDPGA by LC-MS/MS analysis; format: ADME; conditions: liver microsomes, read-out: Stability
[20] = molecular target: T1, von Hippel-Lindau disease tumor suppressor/Bromodomain-containing protein 4; assay: as §2, with “VHL/BRD4” for “BRD4/VHL”, “HEK293” for “human MCF7”, “Tmax” for “residual activity”, “0.3 uM measured every 15 mins” for “300 nM incubated”, “of” for “of 300 nM”, “HiBiT” for “Western blot”; format: cell-based
[21] = molecular target: T1, von Hippel-Lindau disease tumor suppressor/Bromodomain-containing protein 4; assay: PROTAC activity at BRD4/VHL in human MCF7 cells assessed as induction of BRD4 degradation by measuring residual activity at 10 uM incubated for 24 hrs by Western blot analysis; format: cell-based
[22] = molecular target: T1, von Hippel-Lindau disease tumor suppressor/Bromodomain-containing protein 4; assay: PROTAC activity at BRD4/VHL in human MCF7 cells assessed as induction of BRD4 degradation by measuring residual activity at 30 nM incubated for 24 hrs by Western blot analysis; format: cell-based
[23] = Half life in C57BL/6 mouse at 10 mg/kg, ip measured upto 24 hrs by LC-MS/MS analysis; format: ADME, organism-based; conditions: in vivo
[24] = molecular target: T1, von Hippel-Lindau disease tumor suppressor/Bromodomain-containing protein 4; assay: as §1, with “induction of” for “reduction in”, “degradation by measuring residual activity at 1 uM” for “level”; format: cell-based
[25] = molecular target: T1, von Hippel-Lindau disease tumor suppressor/Bromodomain-containing protein 4; assay: as §1, with “VHL/BRD4” for “BRD4/VHL”, “HEK293” for “human MCF7”, “induction of” for “reduction in”, “degradation by measuring Tmax at 0.3 uM measured every 15 mins” for “level incubated”, “HiBiT” for “Western blot”; format: cell-based
[26] = molecular target: T1, von Hippel-Lindau disease tumor suppressor/Bromodomain-containing protein 4; assay: (§3) PROTAC activity at BRD4/VHL in human MCF7 cells assessed as induction of BRD4 degradation by measuring residual activity at 30 nM incubated for 24 hrs in presence of 100 nM BRD4 based ligand ((4S)-6-(4-chlorophenyl)-4-(2-(ethylamino)-2-oxoethyl)-1-methyl4Hbenzo[f][1,2,4]triazolo [4,3-a][1,4]diazepin-8-yl)boronic acid by Western blot based Combinatorial Ubiquitination Real-time PROteolysis analysis; format: cell-based
[27] = molecular target: T1, von Hippel-Lindau disease tumor suppressor/Bromodomain-containing protein 4; assay: as §3, with “300” for “30”, “10 uM” for “100 nM”; format: cell-based
[28] = molecular target: T1, von Hippel-Lindau disease tumor suppressor/Bromodomain-containing protein 4; assay: as §3, with “1 uM” for “30 nM”, “300” for “100”; format: cell-based
[29] = molecular target: T1, von Hippel-Lindau disease tumor suppressor/Bromodomain-containing protein 4; assay: as §3, with “10 uM” for “30 nM”, “300” for “100”; format: cell-based

T1 sequence (P40337 whole entry, looked up, other chains not shown): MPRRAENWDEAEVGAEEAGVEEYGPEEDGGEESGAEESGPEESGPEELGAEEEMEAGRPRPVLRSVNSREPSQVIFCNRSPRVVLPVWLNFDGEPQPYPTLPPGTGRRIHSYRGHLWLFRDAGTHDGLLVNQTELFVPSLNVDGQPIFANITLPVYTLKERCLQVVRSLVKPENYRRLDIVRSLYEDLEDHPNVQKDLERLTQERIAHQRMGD

## CCNC(=O)C[C@@H]1N=C(c2ccc(Cl)cc2)c2cc(B(O)O)ccc2-n2c(C)nnc21
[1]
  remaining at 1 h, 1 µM: 101%
[2]
  Activity: inactive
[3]
  Activity: Active
[4]
  Activity: 68%
[5]; mouse, microsomes, 1 h, 1 µM
  t1/2: 0.483 h
[6]
  Activity: 4.18 h⁻¹
[7]; mouse, microsomes, 1 h, 1 µM
  Stability: 112%
[8]
  Activity: 121%
[9]
  Activity: 147%
[10]
  Activity: 20%
[11]
  Cmax: 1480 ng/mL
[12]
  Activity: 91%
[13]
  Tmax: 0.5 h
[14]
  half-life at 1 µM: > 1 h
[15]
  Activity: 37%
[16]
  Activity: 71%
[17]
  AUC(0-t) at 24 h: 1860 ng·h/mL
[18]
  remaining at 1 h, 1 µM: 107%
[19]
  remaining at 1 h, 1 µM: 100%
[20]
  Tmax: 7.75 h
[21]
  Activity: 68%
[22]
  Activity: 116%
[23]
  half-life: 6.3 h

## Cc1ncsc1-c1ccc(CNC(=O)[C@@H]2C[C@@H](O)CN2C(=O)[C@@H](NC(=O)c2cccc(O)c2O)C(C)(C)C)cc1
[1]
  remaining at 1 h, 1 µM: 87%
[5]; C57BL/6, mouse, liver microsomes
  half-life at 1 µM: > 1 h
[24]
  Activity: 64%
[7]; C57BL/6, mouse, liver microsomes, read-out: Stability
  remaining at 1 h, 1 µM: 24%
[8]
  Activity: 108%
[9]
  Activity: 86%
[11]
  Cmax: 1570 ng/mL
[25]
  Tmax: 7.75 h
[12]
  Activity: 92%
[13]
  Tmax: 0.5 h
[14]
  half-life at 1 µM: > 1 h
[16]
  Activity: 113%
[17]
  AUC(0-t) at 24 h: 2340 ng·h/mL
[18]
  remaining at 1 h, 1 µM: 73%
[19]
  remaining at 1 h, 1 µM: 83%
[26]
  Activity: 89%
[27]
  Activity: 40%
[21]
  Activity: 95%
[28]
  Activity: 48%
[22]
  Activity: 102%
[23]
  half-life: 6.3 h
[29]
  Activity: 48%
